pIC50: −log10 of the molar value. Where a name gives a salt, the structure may show the parent alone.
Assays:
DNA-PK = DNA-PK (Homo sapiens (Human), UniProt P78527); experiment: DNA-PK Enzyme-Linked Immunosorbent Assay (phosphorylation of GST-p53 (1-101) peptide); assay type: biochemical; conditions: ELISA, ATP 20 μM
Procedure, shortened: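 Inhibition measured by 450 nm absorbance after HRP/TMB detection of phospho-Ser15 on immobilized GST-p53 (1-101). The kinase reaction used 0.1 μg/mL DNA-PK and 20 μM ATP, 1 h at 25 °C. Ten 3-fold compound dilutions, top final concentration 100 nM.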

ATM = ATM (Homo sapiens (Human), UniProt Q13315); experiment: ATM in Cell Western Assay (pKAP1 in etoposide-treated MCF-7 cells); assay type: cell-based; conditions: MCF-7 cells, etoposide 100 μM, 1 hr, pKAP1 readout
Procedure, shortened: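 After paraformaldehyde fixation and Triton X-100 permeabilization, immunostained plates were read by infrared scanning (ODYSSEY CLx). Compound was given as 10 doses, 3-fold dilutions from a 1 μM final top concentration.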

ATM, sequence (Q13315 whole entry): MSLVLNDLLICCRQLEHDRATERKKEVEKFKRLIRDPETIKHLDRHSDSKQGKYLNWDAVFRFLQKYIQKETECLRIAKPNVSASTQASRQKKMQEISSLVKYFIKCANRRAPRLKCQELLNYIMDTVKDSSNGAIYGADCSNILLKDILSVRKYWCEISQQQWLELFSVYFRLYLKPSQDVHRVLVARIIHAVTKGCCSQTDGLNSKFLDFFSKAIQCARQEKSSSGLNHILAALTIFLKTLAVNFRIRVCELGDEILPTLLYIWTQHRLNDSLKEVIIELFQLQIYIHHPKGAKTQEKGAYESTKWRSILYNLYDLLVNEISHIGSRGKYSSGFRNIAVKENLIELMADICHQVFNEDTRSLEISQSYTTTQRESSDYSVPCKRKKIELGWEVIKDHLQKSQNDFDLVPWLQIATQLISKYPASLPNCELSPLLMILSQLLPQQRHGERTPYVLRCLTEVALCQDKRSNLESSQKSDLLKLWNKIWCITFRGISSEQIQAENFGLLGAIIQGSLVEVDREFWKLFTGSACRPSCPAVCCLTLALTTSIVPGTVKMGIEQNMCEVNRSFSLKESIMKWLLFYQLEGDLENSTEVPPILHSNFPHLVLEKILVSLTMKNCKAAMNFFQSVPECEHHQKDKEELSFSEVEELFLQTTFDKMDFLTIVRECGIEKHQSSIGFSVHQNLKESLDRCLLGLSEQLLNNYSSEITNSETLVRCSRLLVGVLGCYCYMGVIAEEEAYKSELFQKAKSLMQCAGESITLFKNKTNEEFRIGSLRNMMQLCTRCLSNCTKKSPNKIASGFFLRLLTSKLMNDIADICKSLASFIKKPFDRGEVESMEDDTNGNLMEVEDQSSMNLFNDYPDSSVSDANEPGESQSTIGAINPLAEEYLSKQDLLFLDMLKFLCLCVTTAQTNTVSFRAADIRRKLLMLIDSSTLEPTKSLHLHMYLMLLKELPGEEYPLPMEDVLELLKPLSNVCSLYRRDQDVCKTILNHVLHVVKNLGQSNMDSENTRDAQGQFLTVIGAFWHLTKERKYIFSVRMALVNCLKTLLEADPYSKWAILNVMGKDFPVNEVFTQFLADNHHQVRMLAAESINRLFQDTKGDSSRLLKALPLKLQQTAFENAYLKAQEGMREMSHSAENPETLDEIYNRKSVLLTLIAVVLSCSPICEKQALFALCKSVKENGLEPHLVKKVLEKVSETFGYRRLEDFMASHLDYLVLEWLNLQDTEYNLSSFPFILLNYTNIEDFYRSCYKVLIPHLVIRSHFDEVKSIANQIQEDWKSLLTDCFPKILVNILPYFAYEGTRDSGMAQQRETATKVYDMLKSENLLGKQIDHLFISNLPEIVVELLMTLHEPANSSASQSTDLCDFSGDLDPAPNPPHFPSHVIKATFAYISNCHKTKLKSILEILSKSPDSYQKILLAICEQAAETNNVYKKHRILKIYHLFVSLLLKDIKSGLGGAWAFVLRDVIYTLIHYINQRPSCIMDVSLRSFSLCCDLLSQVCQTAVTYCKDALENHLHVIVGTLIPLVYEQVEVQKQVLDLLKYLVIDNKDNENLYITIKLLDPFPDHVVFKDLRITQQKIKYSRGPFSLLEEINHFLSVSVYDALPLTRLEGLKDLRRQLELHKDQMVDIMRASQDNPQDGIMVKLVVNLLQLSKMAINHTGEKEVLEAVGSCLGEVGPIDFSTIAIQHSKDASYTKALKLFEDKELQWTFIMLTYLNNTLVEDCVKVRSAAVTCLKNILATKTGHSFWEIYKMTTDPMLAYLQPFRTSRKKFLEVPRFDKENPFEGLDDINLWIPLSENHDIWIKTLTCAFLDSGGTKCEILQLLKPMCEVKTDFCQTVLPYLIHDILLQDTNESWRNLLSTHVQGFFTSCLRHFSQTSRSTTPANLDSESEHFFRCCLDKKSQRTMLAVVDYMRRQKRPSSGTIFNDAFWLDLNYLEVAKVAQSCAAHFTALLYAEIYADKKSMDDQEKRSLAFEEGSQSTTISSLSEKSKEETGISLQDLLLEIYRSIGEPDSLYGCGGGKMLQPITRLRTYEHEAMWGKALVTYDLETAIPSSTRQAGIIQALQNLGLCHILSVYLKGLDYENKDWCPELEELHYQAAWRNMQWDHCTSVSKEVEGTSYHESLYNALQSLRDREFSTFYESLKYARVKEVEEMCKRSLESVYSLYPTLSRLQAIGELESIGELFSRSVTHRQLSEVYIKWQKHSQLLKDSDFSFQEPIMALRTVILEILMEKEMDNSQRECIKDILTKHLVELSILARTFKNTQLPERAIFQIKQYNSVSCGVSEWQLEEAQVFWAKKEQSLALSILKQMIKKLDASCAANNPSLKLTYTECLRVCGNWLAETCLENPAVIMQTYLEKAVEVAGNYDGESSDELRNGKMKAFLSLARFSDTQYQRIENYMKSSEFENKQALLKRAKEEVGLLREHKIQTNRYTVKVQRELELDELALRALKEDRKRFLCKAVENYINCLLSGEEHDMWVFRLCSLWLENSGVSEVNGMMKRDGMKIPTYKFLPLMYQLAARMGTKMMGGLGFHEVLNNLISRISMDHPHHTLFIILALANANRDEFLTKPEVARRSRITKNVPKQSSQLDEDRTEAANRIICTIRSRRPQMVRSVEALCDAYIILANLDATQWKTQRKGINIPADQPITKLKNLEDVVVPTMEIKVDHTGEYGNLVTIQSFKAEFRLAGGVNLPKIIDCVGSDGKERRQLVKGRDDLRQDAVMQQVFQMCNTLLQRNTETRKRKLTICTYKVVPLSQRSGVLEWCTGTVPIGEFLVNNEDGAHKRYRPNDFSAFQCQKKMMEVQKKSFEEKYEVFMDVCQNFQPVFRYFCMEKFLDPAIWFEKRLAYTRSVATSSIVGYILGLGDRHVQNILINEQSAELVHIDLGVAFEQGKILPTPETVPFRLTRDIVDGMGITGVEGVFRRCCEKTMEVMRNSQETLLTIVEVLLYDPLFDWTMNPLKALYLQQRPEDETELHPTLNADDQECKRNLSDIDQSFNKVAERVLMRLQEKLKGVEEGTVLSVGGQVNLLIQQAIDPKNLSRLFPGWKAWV

Row | SMILES | pIC50 (DNA-PK) | pIC50 (ATM)
1 | COc1cc2ncc3c(c2cc1-c1cnc(OCCCN(C)C)c(NS(=O)(=O)c2ccccc2)c1)C1(CC1)C(=O)N3C [Example 82, N-(2-(3-(Dimethylamino)propoxy)-5-(7-methoxy-3′-methyl-2′-oxo-2′,3′-dihydrospiro[cyclopropane-1,1′-pyrrolo[2,3-c]quinolin]-8′-yl)pyridin-3-yl) benzenesulfonamide] | 7.00 to 9.00 | 9.00 to 9.30
2 | COCCS(=O)(=O)Nc1cc(-c2ccc3ncc4c(c3c2)C2(CC2)C(=O)N4C)cnc1OCCCN(C)C [Example 83, N-(2-(3-(Dimethylamino)propoxy)-5-(3′-methyl-2′-oxo-2′,3′-dihydrospiro [cyclopropane-1,1′-pyrrolo[2,3-c]quinolin]-8′-yl)pyridin-3-yl)-2-methoxyethane-1-sulfonamide] | 7.00 to 9.00 | > 9.30
3 | CN1CCCC(COc2ncc(-c3ccc4ncc5c(c4c3)C3(CC3)C(=O)N5C)cc2NS(=O)(=O)c2ccccc2)C1 (stereo not drawn) [Example 84, N-(5-(3′-Methyl-2′-oxo-2′,3′-dihydrospiro[cyclopropane-1,1′-pyrrolo[2,3-c]quinolin]-8′-yl)-2-((1-methylpiperidin-3-yl)methoxy)pyridin-3-yl)benzenesulfonamide] | 7.00 to 9.00 | 7.00 to 9.00
4 | CN1CCCC(COc2ncc(-c3ccc4ncc5c(c4c3)C3(CC3)C(=O)N5C)cc2NS(=O)(=O)C2CC2)C1 (stereo not drawn) [Example 86, N-(5-(3′-Methyl-2′-oxo-2′,3′-dihydrospiro[cyclopropane-1,1′-pyrrolo[2,3-c]quinolin]-8′-yl)-2-((1-methylpiperidin-3-yl)methoxy)pyridin-3-yl)cyclopropanesulfonamide] | 7.00 to 9.00 | 7.00 to 9.00
5 | CN(C)CCCOc1ccc(-c2ccc3ncc4c(c3c2)C2(CC2)C(=O)N4C)cc1NS(=O)(=O)c1cccc(F)c1 [Example 90] | 7.00 to 9.00 | 9.00 to 9.30
6 | CN(C)CCCOc1c(F)cc(-c2ccc3ncc4c(c3c2)C2(CC2)C(=O)N4C)cc1NS(=O)(=O)c1ccccc1 [Example 97, N-(2-(3-(Dimethylamino)propoxy)-3-fluoro-5-(3′-methyl-2′-oxo-2′,3′-dihydrospiro[cyclopropane-1,1′-pyrrolo[2,3-c]quinolin]-8′-yl)phenyl)benzenesulfonamide] | 7.00 to 9.00 | 7.00 to 9.00
7 | CN(C)CCCOc1ccc(-c2ccc3ncc4c(c3c2)C2(CC2)C(=O)N4C)cc1NS(=O)(=O)c1cccc(Cl)c1 [Example 98, 3-Chloro-N-(2-(3-(dimethylamino)propoxy)-5-(3′-methyl-2′-oxo-2′,3′-dihydrospiro[cyclopropane-1,1′-pyrrolo[2,3-c]quinolin]-8′-yl)phenyl) benzenesulfonamide] | 7.00 to 9.00 | 7.00 to 9.00
8 | CN1C(=O)C2(CC2)c2c1cnc1ccc(-c3cnc(OC4CC(N(C)C)C4)c(NS(=O)(=O)c4ccccc4)c3)cc21 (stereo not drawn) [Example 102, N-(2-(3-(Dimethylamino)cyclobutoxy)-5-(3′-methyl-2′-oxo-2′,3′-dihydrospiro[cyclopropane-1,1′-pyrrolo[2,3-c]quinolin]-8′-yl)pyridin-3-yl)benzenesulfonamide] | 7.00 to 9.00 | 7.00 to 9.00
9 | CN(C)CCCOc1ncc(-c2ccc3ncc4c(c3c2)C2(CC2)C(=O)N4C)cc1NS(=O)(=O)Cc1ccccc1 [Example 103, N-(2-(3-(Dimethylamino)propoxy)-5-(3′-methyl-2′-oxo-2′,3′-dihydrospiro [cyclopropane-1,1′-pyrrolo[2,3-c]quinolin]-8′-yl)pyridin-3-yl)-1-phenylmethanesulfonamide] | 7.00 to 9.00 | 7.00 to 9.00
10 | COc1cccc(S(=O)(=O)Nc2cc(-c3ccc4ncc5c(c4c3)C3(CC3)C(=O)N5C)cnc2OCCCN(C)C)c1 [Example 104] | 7.00 to 9.00 | 9.00 to 9.30

More lines, now with the values ahead:

Row | pIC50 (DNA-PK) | pIC50 (ATM) | SMILES
11 | 7.00 to 9.00 | 7.00 to 9.00 | CN1C(=O)C2(CC2)c2c1cnc1ccc(-c3cnc(OCCC4CCCCN4C)c(NS(=O)(=O)C4CC4)c3)cc21 (stereo not drawn) [Example 80, N-(5-(3′-Methyl-2′-oxo-2′,3′-dihydrospiro [cyclopropane-1,1′-pyrrolo[2,3-c]quinolin]-8′-yl)-2-(2-(1-methylpiperidin-2-yl)ethoxy)pyridin-3-yl)cyclopropanesulfonamide]
12 | 7.00 to 9.00 | 7.00 to 9.00 | CN1C(=O)C2(CC2)c2c1cnc1ccc(-c3cnc(OCCC4CCCCN4C)c(NS(=O)(=O)c4ccccc4)c3)cc21 (stereo not drawn) [Example 81, N-(5-(3′-Methyl-2′-oxo-2′,3′-dihydrospiro [cyclopropane-1,1′-pyrrolo[2,3-c]quinolin]-8′-yl)-2-(2-(1-methylpiperidin-2-yl)ethoxy)pyridin-3-yl)benzenesulfonamide]
13 | > 9.30 | 9.00 to 9.30 | CN(C)CCCOc1ncc(-c2ccc3ncc4c(c3c2)C2(CC2)C(=O)N4C)cc1NS(=O)(=O)c1ccc(F)cc1 [Example 88, N-(2-(3-(Dimethylamino)propoxy)-5-(3′-methyl-2′-oxo-2′,3′-dihydrospiro [cyclopropane-1,1′-pyrrolo[2,3-c]quinolin]-8′-yl)pyridin-3-yl)-4-fluorobenzenesulfonamide]
14 | > 9.30 | 9.00 to 9.30 | CN(C)CCCOc1ncc(-c2ccc3ncc4c(c3c2)C2(CC2)C(=O)N4C)cc1NS(=O)(=O)N1CCCC1 [Example 89, N-(2-(3-(Dimethylamino)propoxy)-5-(3′-methyl-2′-oxo-2′,3′-dihydrospiro [cyclopropane-1,1′-pyrrolo[2,3-c]quinolin]-8′-yl)pyridin-3-yl)pyrrolidine-1-sulfonamide hydrochloride]
15 | > 9.30 | 7.00 to 9.00 | CN(C)CCCOc1ncc(-c2ccc3ncc4c(c3c2)C2(CC2)C(=O)N4C)cc1NS(=O)(=O)c1cnn(C)c1 [Example 91, N-(2-(3-(Dimethylamino)propoxy)-5-(3′-methyl-2′-oxo-2′,3′-dihydrospiro [cyclopropane-1,1′-pyrrolo[2,3-c]quinolin]-8′-yl)pyridin-3-yl)-1-methyl-1H-pyrazole-4-sulfonamide]
16 | > 9.30 | 9.00 to 9.30 | CN(C)CCCOc1ncc(-c2ccc3ncc4c(c3c2)C2(CC2)C(=O)N4C)cc1NS(=O)(=O)c1ccsc1 [Example 92, N-(2-(3-(Dimethylamino)propoxy)-5-(3′-methyl-2′-oxo-2′,3′-dihydrospiro [cyclopropane-1,1′-pyrrolo[2,3-c]quinolin]-8′-yl)pyridin-3-yl)thiophene-3-sulfonamide]
17 | > 9.30 | 7.00 to 9.00 | COc1ccc(S(=O)(=O)Nc2cc(-c3ccc4ncc5c(c4c3)C3(CC3)C(=O)N5C)cnc2OCCCN(C)C)cc1 [Example 93, N-(2-(3-(Dimethylamino)propoxy)-5-(3′-methyl-2′-oxo-2′,3′-dihydrospiro [cyclopropane-1,1′-pyrrolo[2,3-c]quinolin]-8′-yl)pyridin-3-yl)-4-methoxybenzenesulfonamide]
18 | > 9.30 | 9.00 to 9.30 | CN(C)CCCOc1ncc(-c2ccc3ncc4c(c3c2)C2(CC2)C(=O)N4C)cc1NS(=O)(=O)c1cccc(C#N)c1 [Example 96, 3-Cyano-N-(2-(3-(dimethylamino)propoxy)-5-(3′-methyl-2′-oxo-2′,3′-dihydrospiro[cyclopropane-1,1′-pyrrolo[2,3-c]quinolin]-8′-yl)pyridin-3-yl)benzenesulfonamide]
19 | > 9.30 | 7.00 to 9.00 | Cc1ccc(S(=O)(=O)Nc2cc(-c3ccc4ncc5c(c4c3)C3(CC3)C(=O)N5C)cnc2OCCCN(C)C)cc1 [Example 100, N-(2-(3-(Dimethylamino)propoxy)-5-(3′-methyl-2′-oxo-2′,3′-dihydrospiro [cyclopropane-1,1′-pyrrolo[2,3-c]quinolin]-8′-yl)pyridin-3-yl)-4-methylbenzenesulfonamide]
20 | > 9.30 | 7.00 to 9.00 | CN(C)CCCOc1ncc(-c2ccc3ncc4c(c3c2)C2(CC2)C(=O)N4C)cc1NS(=O)(=O)c1cccc(C(F)(F)F)c1 [Example 106, N-(2-(3-(Dimethylamino)propoxy)-5-(3′-methyl-2′-oxo-2′,3′-dihydrospiro [cyclopropane-1,1′-pyrrolo[2,3-c]quinolin]-8′-yl)pyridin-3-yl)-3-(trifluoromethyl)benzenesulfonamide]
21 | > 9.30 | 9.00 to 9.30 | CN(C)CCCOc1ncc(-c2ccc3ncc4c(c3c2)C2(CC2)C(=O)N4C)cc1NS(=O)(=O)c1ccccc1F [Example 107, N-(2-(3-(Dimethylamino)propoxy)-5-(3′-methyl-2′-oxo-2′,3′-dihydrospiro[cyclopropane-1,1′-pyrrolo[2,3-c]quinolin]-8′-yl)pyridin-3-yl)-2-fluorobenzenesulfonamide]
22 | > 9.30 | 7.00 to 9.00 | CN(C)CCCOc1ncc(-c2ccc3ncc4c(c3c2)C2(CC2)C(=O)N4C)cc1NS(=O)(=O)N(C)C [Example 109]
23 | > 9.30 | 7.00 to 9.00 | CN(C)CCCOc1ncc(-c2ccc3ncc4c(c3c2)C2(CC2)C(=O)N4C)cc1NS(=O)(=O)c1ccc(F)c(C#N)c1 [Example 111, 3-Cyano-N-(2-(3-(dimethylamino)propoxy)-5-(3′-methyl-2′-oxo-2′,3′-dihydrospiro [cyclopropane-1,1′-pyrrolo[2,3-c]quinolin]-8′-yl)pyridin-3-yl)-4-fluorobenzenesulfonamide]
24 | > 9.30 | 7.00 to 9.00 | CN(C)CCCOc1ncc(-c2ccc3ncc4c(c3c2)C2(CC2)C(=O)N4C)cc1NS(=O)(=O)c1ccn(C)n1 [Example 112, N-(2-(3-(Dimethylamino)propoxy)-5-(3′-methyl-2′-oxo-2′,3′-dihydrospiro[cyclopropane-1,1′-pyrrolo[2,3-c]quinolin]-8′-yl)pyridin-3-yl)-1-methyl-1H-pyrazole-3-sulfonamide]
